The values that follow come from patent US20080220069A1, “Long Acting Injectable Crystal Formulations of Estradiol Metabolites and Methods of Using Same” (PR PHARMACEUTICALS, INC., priority 2004, published 2008).

The conditions of data set [1]: room temperature.
The nature of data set [2]: In vivo pharmacokinetics of 2ME crystal preparation with broad size distribution (Example 2), plasma 2ME by gas chromatography-mass detection. As to conditions: rat, 5 mg/rat subcutaneous. The protocol: The material generated in Example 1 was ground in a mortar and pestle, sieved through a 180 um screen, and the particle size distribution of the sieved material was measured on a Coulter LS13320 Particle Size analyzer.
On day 0, animals in all treatment groups received 5 mg/rat of 2ME in 0.25 ml injection vehicle consisting of 2.0% w/v sodium carboxymethylcellulose containing 0.01% w/v Tween 80 and 0.1% w/v SDS by subcutaneous injection using a 1 cc syringe and a 1″, 20-gauge needle. On Day—3 blood was collected from all rats via the tail vein. On Days 1, 3, 7, 21, 28, and 35, all rats were bled via the lateral tail vein. Plasma samples were extracted, derivatized, and 2ME concentration was measured using a qualified gas chromatography-mass detection method. The plasma concentration profile of 2ME released from crystals with a broad size distribution is characterized by an initial burst followed by sustained blood levels of approximately 5 ng/ml between days 3 and 28.

Data set [3] is described as follows: In vivo pharmacokinetics of 2ME particles ranging from 90 to 180 micrometers (Example 7). The conditions noted are these: rat, 5 mg/rat subcutaneous, particles 90 to 180 micrometers. The protocol:
(§1) A portion of the 2-methoxyestradiol prepared in Example 1 was ground in a mortar and pestle and sieved through stainless steel screens to generate a population of particles ranging from 90 to 180 micrometers. On day 0, each animal in the treatment group (n=6) received 5 mg/rat of 2ME in 0.25 ml injection vehicle consisting of 0.5% w/v sodium carboxymethylcellulose containing 5% w/v mannitol and 0.05% w/v SDS by subcutaneous injection using a 1 cc syringe and a 1 inch, 20-gauge needle. On Day—3 blood was collected from all rats via the tail vein. Rats were bled periodically via the lateral tail vein. Plasma samples were extracted, derivatized, and 2ME concentration was measured using a qualified gas chromatography-mass spectroscopy detection method. Plasma concentrations versus time are plotted in FIG. 3.

Data set [4] is described as follows: In vivo pharmacokinetics of altered crystal form (hemi hydrate) of 2ME (Example 6). The conditions noted are these: rat, 5 mg/rat subcutaneous, hemi hydrate crystals approx. 10 μm, by day 28. The protocol:
A solution of 2-methoxyestradiol (2ME) (Tetrionics, Madison, Wis.) was made in n-methylpyrrolidone at a 10% w/v concentration. One volume of the 2ME solution was added to 1000 volumes of water stirring rapidly at 23° C. The mixture was allowed to stir prior to the addition of sodium dodecyl sulfate (SDS) to a final concentration of 0.1% w/v. The 2ME was collected by sedimentation and washed twice with 0.1% SDS.
as §1, with “On” for “A portion of the 2-methoxyestradiol prepared in Example 1 was ground in a mortar and pestle and sieved through stainless steel screens to generate a population of particles ranging from 90 to 180 micrometers. On”, “2.” for “3.”

The conditions of data set [5]: rat, 16 mg subcutaneous in 2.5% w/v sodium carboxymethylcellulose, after 15 days.

Regarding `C[C@]12CC[C@@H]3c4cc(O)c(O)cc4CC[C@H]3[C@@H]1CC[C@@H]2O` [2-hydroxyestradiol], the water solubility result in data set [1] was “approximately 0.155 mg/ml”.

Consider `COc1cc2c(cc1O)CC[C@@H]1[C@@H]2CC[C@]2(C)[C@@H](O)CC[C@@H]12` [2ME, 2-methoxyestradiol], for which the “sustained blood levels of 2ME” value in data set [2] (crystals 48.98±36.95 μm, between days 3 and 28) was “approximately 5 ng/ml”. Further, in data set [2] (crystals 48.98±36.95 μm, by day 35), the 2ME blood levels result was “fallen to zero”. In addition, in data set [2] (crystals with a broad size distribution), the “plasma concentration profile, initial phase” value is recorded as “initial burst”. The 2ME in plasma result in data set [3] (day 51) was “still measurable”. In addition, the initial plasma concentrations entry in data set [3] (first week) is “low initial plasma concentrations”. In addition, the “plasma 2ME concentrations” value in data set [4] was “fallen to zero”.

For the molecule `COc1cc2c(cc1OC(=O)c1ccccc1)CC[C@@H]1[C@@H]2CC[C@]2(C)[C@@H](O)CC[C@@H]12` [3-benzoyl-2-methoxyestradiol], the “release of the injected dose (chromatographic analysis of dissected injection site)” value in data set [5] was 6.2%±1.2. For the same molecule, in data set [1] (same conditions as parent), the “water solubility of the esterified compound, fold lower than parent estradiol metabolite” value is listed as “approximately 3 fold”.
